{
  "source": "patent US10583109B2",
  "about": "“Use of silver(I) complexes as anticancer agents” (University of Johannesburg, priority 2012, dated 2020)",
  "key": {"[1]": {"test_system": "MCF-7 breast cancer cells", "test": "AlamarBlue viability and proliferation assay of MCF-7 breast cancer cells", "format": "cell-based, human", "conditions": "MCF-7 cells", "protocol": "For the biological studies, MCF-7 breast cancer cells were obtained from an immortal cell line from human adenocarcinoma from (primary site) mammary gland and (metastatic site) pleural effusion (ATCC no HTB-22).\nMCF-7 breast cancer cells were cultured in Dulbecco's modified Eagle's medium (DMEM), 13.53 g/L with sodium bicarbonate (NaHCO3), 3.7 g/L supplemented with 10% foetal bovine serum (FBS), 1% gentamycin and 5% Penicillin/Streptomycin/Fungizone in 75 cm^3 culture flasks. Cells were subcultured twice a week and incubated at 37° C. with 5% CO2 in a humidified atmosphere. Hanks balanced salt solution (HBSS), supplemented DMEM media and trypsin versene were warmed to 37° C. prior to subculturing. Cells were washed twice with 10 ml Hanks balanced salt solution for 1 minute and were then incubated for 4.5 to 5 minutes at 37° C. with 6 ml trypsin versene to remove the cells from the culture flask. To inactivate the trypsin versene, 10 ml supplemented DMEM was added and the cells were pelleted by centrifugation at 1028 g for 4 minutes with an Allegra™ 25R Centrifuge. The pellet was resuspended in 1 ml supplemented DMEM and 500 μl of the cell suspension was then added to 25 ml of supplemented DMEM media in 75 cm^3 culture flasks.\nMCF-7 breast cancer cells, in terms of a first study, and SNO-oesophageal cancer cells, in terms of a second study, were treated with 10 μM silverthiocyanide complexes (1)-(5), as well as their ligands (Ligand-1 to Ligand-5) over a 24 hour incubation period. […] An untreated negative control (UT) was exposed to similar conditions as the treated cells and monitored during the experimental study.\nThe AlamarBlue® viability and proliferation assay of complexes (1)-(5) for the MCF-7 breast cancer cells is depicted in FIGS. 1A to 1F. The percentage viability of control samples determined by the AlamarBlue® viability and proliferation assay is depicted in FIG. 1A. […] A significant difference (P<0.001) between the control and the treated samples was calculated using Student's T-test and is indicated by an asterisk.\n(§1) This Figure depicts the percentage viability of MCF-7 cells treated with various concentrations of complex (1) as determined by the AlamarBlue® viability and proliferation assay. […] The asterisk indicates a significant difference between a sample and the control (P<0.001) as calculated with Student's T-test.\nas §1, with “FIG. 1C to FIG. 1F represent the dose dependant studies of complexes (2) to (5), respectively. In each of these Figures,” for “This Figure depicts”, “complexes (2) to (5) was” for “complex (1) as”, “T-test. […]” for “T-test.”"}, "[2]": {"test_system": "MCF-7 breast cancer cells", "test": "Morphological features of MCF-7 cells by inverse light microscopy", "format": "cell-based, human", "conditions": "10 μM, 24 hours after treatment, compared to 100 μM Cisplatin apoptotic control", "protocol": "The morphological features of MCF-7 cells following differential treatments were evaluated by inverse light microscopy as depicted in FIG. 4. Untreated cells served as the control, while 1% DMSO served as the solvent control and 100 μM Cisplatin indicates apoptotic cells. Cells were exposed to 10 μM of complexes (1)-(5). Morphological changes of the cell indicative of apoptosis include cell shrinkage and blebbing.\nIn the light of the decreased viability, the morphology of the cells was studied 24 hours after treatment with 10 μM of complexes (1), (2), (3), (4) and (5) to determine if apoptotic or necrotic features were present. The morphology of the cells was compared to the apoptotic control treated with 100 μM Cisplatin (FIG. 4)."}, "Caspase-3/7": {"test_system": "Caspase-3/7", "test": "Caspase-Glo 3/7 assay in SNO-oesophageal cancer cells", "format": "cell-based", "set-up": "increase in Caspase-3/7 expression: unit not given here", "conditions": "10 μM, 24 hours treatment", "protocol": "The Caspase-Glo®3/7 assay was used to confirm that the structural changes observed are due to apoptotic cell death. In this luminescent based assay, a 1:1 ratio of the Caspase-Glo® reagent was added to treated cells into a microtiter plate. The plate was gently agitated for 30 seconds and incubated for 30 minutes at room temperature. The whole luminescent intensity was measured using a Synergy HT Multi-Detection Microplate reader, where the intensity of the luminescence is proportional to the Caspase-3/7 concentration.\nThe error bars where constructed based on the standard error of the mean (SEM) where n=6. The significant difference were calculated with respect to the vehicle control (P<**0.001). A relative increase in expression was observed throughout."}, "A-549 lung cancer cells": {"test_system": "A-549 lung cancer cells", "test": "Morphological features of A-549 lung cancer cells by inverse light microscopy", "format": "cell-based", "conditions": "A-549 cells", "protocol": "Morphological studies were conducted using a Zeiss Axiovert 25 Inverted Light Microscope [Carl Zeiss, Germany] with photographs taken with an Axio Cam Camera and Axio Vision 3.1 software [Carl Zeiss, Germany] at 100× magnification.\nMorphological features of A-549 lung cancer cells evaluated by inverse light microscopy following differential treatments are indicated in FIG. 28: (A)=Untreated Negative Control; (B)=1% DMSO Vehicle Control (VC); (C)=100 μM Cisplatin (CDDP) Positive Apoptotic Control; (D)=Hydrogen Peroxide Positive Necrotic Control; (E)=complex (6) having a molar ratio of 1:1; (F)=Triphenylphosphine Ligand; (G)=complex (9) having a molar ratio of 1:4. Cells were visualised with Zeiss Axiovert 25 Inverted Light Microscope with photographs taken at 100× magnification. Morphology of A-549 lung cancer cells after differential treatments resembled that of the positive apoptotic control with characteristic apoptotic cellular morphology such as blebbing, rounding and cell shrinkage being observed."}},
  "data": [
    {"compound": "C1#[N+][Ag]([P+](c2ccccc2)(c2ccccc2)c2ccccc2)([P+](c2ccccc2)(c2ccccc2)c2ccccc2)[S]C#[N+][Ag]([P+](c2ccccc2)(c2ccccc2)c2ccccc2)([P+](c2ccccc2)(c2ccccc2)c2ccccc2)[S]1", "note": "[complex (1), [AgSCN(PPh3)2]2]", "values": [
      {"measurement": "cytotoxic activity (ranking)", "setting": "[1]", "value": "strongest"},
      {"measurement": "cell morphology (apoptotic or necrotic features)", "setting": "[2]", "value": "morphology characteristic of necrosis"}
    ]},
    {"compound": "c1ccc([P+](c2ccccc2)(c2ccccc2)[Ag+]([P+](c2ccccc2)(c2ccccc2)c2ccccc2)([P+](c2ccccc2)(c2ccccc2)c2ccccc2)[P+](c2ccccc2)(c2ccccc2)c2ccccc2)cc1", "note": "[complex (9), AgNO3(PPh3)4]", "values": [
      {"measurement": "increase in Caspase-3/7 expression", "setting": "Caspase-3/7", "value": 2.74},
      {"measurement": "signs of apoptosis (morphology)", "setting": "A-549 lung cancer cells", "value": "more effective"}
    ]},
    {"compound": "[AgSCN{P(4-FC6H4)3}2]2 [complex (3)]", "values": [
      {"measurement": "cytotoxic activity (ranking)", "setting": "[1]", "value": "strongest"}
    ]}
  ]
}
